How the values were obtained:
Assay type in all cases: in vivo
[1] = system: barnyardgrass (Echinochloa crus-galli); test: Test D flooded paddy test, visual plant response rating; conditions: 250 g ai/ha, scale 0 to 100 (0 no effect, 100 complete control), 13 to 15 d
How it was run: (§1)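 Plants were grown to the 2-leaf stage, pots flooded to 3 cm above soil, and compound applied directly into the paddy water, with the depth held throughout. After 13 to 15 d in a greenhouse, response was rated visually against untreated controls on a 0–100 scale (0 no effect, 100 complete control).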

[2] = system: duck salad (Heteranthera limosa); test: as above; conditions: 250 g ai/ha, scale 0 to 100 (0 no effect, 100 complete control), 13 to 15 d
How it was run: as §1

rice (Oryza sativa) = test: as above; conditions: 250 g ai/ha, scale 0 to 100 (0 no effect, 100 complete control), 13 to 15 d
How it was run: as §1

[3] = system: sedge umbrella (small-flower umbrella sedge, Cyperus difformis); test: as above; conditions: 250 g ai/ha, scale 0 to 100 (0 no effect, 100 complete control), 13 to 15 d
How it was run: as §1

[4] = system: barnyardgrass (Echinochloa crus-galli); test: Test C preemergence, visual plant response rating; conditions: Test C, 0 is no effect, 100 is complete control
How it was run: (§2)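 Compounds in a non-phytotoxic solvent with surfactant were applied as a directed soil spray preemergence or to 2–10 cm, one- to two-leaf plants postemergence, in loam–sand soil. After about 10 d in a greenhouse, injury was visually rated against untreated controls on a 0–100 scale (100 = complete control).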

[5] = system: foxtail, giant (giant foxtail, Setaria faberi); test: Test C preemergence, visual plant response rating; conditions: Test C, 0 is no effect, 100 is complete control
How it was run: as §2

[6] = system: pigweed (Amaranthus retroflexus); test: Test C preemergence, visual plant response rating; conditions: Test C, 0 is no effect, 100 is complete control
How it was run: as §2

[7] = system: Italian ryegrass (Lolium mutiflorum); test: Test C preemergence, visual plant response rating; conditions: Test C, 0 is no effect, 100 is complete control
How it was run: as §2

kochia (Bassia scoparia) [8] = test: Test C preemergence, visual plant response rating; conditions: Test C, 0 is no effect, 100 is complete control
How it was run: as §2

[9] = system: ragweed (common ragweed, Ambrosia artemisiifolia); test: Test C preemergence, visual plant response rating; conditions: Test C, 0 is no effect, 100 is complete control
How it was run: as §2

[10] = system: barnyardgrass (Echinochloa crus-galli); test: Test C postemergence, visual plant response rating
How it was run: as §2

[11] = system: foxtail, giant (giant foxtail, Setaria faberi); test: Test C postemergence, visual plant response rating
How it was run: as §2

[12] = system: pigweed (Amaranthus retroflexus); test: Test C postemergence, visual plant response rating
How it was run: as §2

[13] = system: blackgrass (Alopecurus myosuroides); test: Test C postemergence, visual plant response rating
How it was run: as §2

corn (Zea mays) = test: Test C postemergence, visual plant response rating
How it was run: as §2

[14] = system: Italian ryegrass (Lolium mutiflorum); test: Test C postemergence, visual plant response rating
How it was run: as §2

kochia (Bassia scoparia) [15] = test: Test C postemergence, visual plant response rating
How it was run: as §2

[16] = system: galium (catchweed bedstraw, Galium aparine); test: Test C postemergence, visual plant response rating
How it was run: as §2

[17] = system: wheat (Triticum aestivum); test: Test C postemergence, visual plant response rating
How it was run: as §2

[18] = system: ragweed (common ragweed, Ambrosia artemisiifolia); test: Test C postemergence, visual plant response rating
How it was run: as §2

[19] = Test C, postemergence, 125 g ai/ha

`CO/N=C(\c1cccc(/C=C\Cl)c1)c1c(O)c(C)nn(C)c1=O` [Compound 288] was tested, and the “Plant response rating, Barnyardgrass (Flood)” value [1] was 0, the “Plant response rating, Ducksalad (Flood)” value [2] was 0 and the “Plant response rating, Rice (Flood)” value (rice (Oryza sativa)) was 0. The “Plant response rating, Sedge, Umbrella (Flood)” value [3] was 0, the “Barnyardgrass plant response rating (0 to 100 scale)” value (shortened to “Barnyardgrass plant response rating”) ([4]; 31 g ai/ha) was 70 and the “Barnyardgrass plant response rating” value ([4]; 125 g ai/ha) was 100. The “Foxtail, Giant plant response rating (0 to 100 scale)” value (“Foxtail, Giant plant response rating” for short) ([5]; 31 g ai/ha) was 40, the “Foxtail, Giant plant response rating” value ([5]; 125 g ai/ha) was 100 and the “Pigweed plant response rating (0 to 100 scale)” value (“Pigweed plant response rating” for short) ([6]; 31 g ai/ha) was 0. For the same compound, the “Pigweed plant response rating” value ([6]; 125 g ai/ha) was 0, the “Ryegrass, Italian plant response rating (0 to 100 scale)” value (from here on “Ryegrass, Italian plant response rating”) ([7]; 31 g ai/ha) was 70 and the “Ryegrass, Italian plant response rating” value ([7]; 125 g ai/ha) was 100. The “Kochia plant response rating (0 to 100 scale)” value (“Kochia plant response rating” below) (kochia (Bassia scoparia) [8]; 31 g ai/ha) was 0, the “Kochia plant response rating” value (kochia (Bassia scoparia) [8]; 125 g ai/ha) was 30 and the “Ragweed plant response rating (0 to 100 scale)” value (“Ragweed plant response rating” below) ([9]; 31 g ai/ha) was 10. The “Ragweed plant response rating” value ([9]; 125 g ai/ha) was 20, the “Barnyardgrass plant response rating” value ([10]; Postemergence, 31 g ai/ha) was 70 and the “Barnyardgrass plant response rating” value [10, 19] was 100. The “Foxtail, Giant plant response rating” value ([11]; Postemergence, 31 g ai/ha) was 80, the “Foxtail, Giant plant response rating” value [11, 19] was 90 and the “Pigweed plant response rating” value ([12]; Postemergence, 31 g ai/ha) was 0. For the same compound, the “Pigweed plant response rating” value [12, 19] was 30, the “Blackgrass plant response rating (0 to 100 scale)” value ([13]; Postemergence, 31 g ai/ha) was 40 and the “Blackgrass plant response rating (0 to 100 scale)” value [13, 19] was 40. The “Corn plant response rating (0 to 100 scale)” value (corn (Zea mays); Postemergence, 31 g ai/ha) was 10, the “Corn plant response rating (0 to 100 scale)” value (corn (Zea mays); [19]) was 20 and the “Ryegrass, Italian plant response rating” value ([14]; Postemergence, 31 g ai/ha) was 40. For the same compound, the “Ryegrass, Italian plant response rating” value [14, 19] was 100, the “Kochia plant response rating” value (kochia (Bassia scoparia) [15]; Postemergence, 31 g ai/ha) was 10 and the “Kochia plant response rating” value (kochia (Bassia scoparia) [15]; [19]) was 30. For the same compound, the “Galium plant response rating (0 to 100 scale)” value ([16]; Postemergence, 31 g ai/ha) was 60, the “Galium plant response rating (0 to 100 scale)” value [16, 19] was 80 and the “Wheat plant response rating (0 to 100 scale)” value ([17]; Postemergence, 31 g ai/ha) was 0. The “Wheat plant response rating (0 to 100 scale)” value [17, 19] was 0, the “Ragweed plant response rating” value ([18]; Postemergence, 31 g ai/ha) was 30 and the “Ragweed plant response rating” value [18, 19] was 60.

— patent publication US20210045385A1, “PYRIDAZINONE-SUBSTITUTED KETOXIMES AS HERBICIDES” (FMC Corporation, priority 2018, published 2021)
